Results reported in PubChem BioAssay AID1963965 (Molecular Pharmacology Branch, DTP, NCI, 2024).

System: 996289-038-R-J1-PDC spheroid viability
Assay: Anticancer human tumor 996289-038-R-J1-PDC patient-derived colon adenocarcinoma cell line growth inhibition [PI3K]
Conditions: spheroids with HUVEC and MSC; for viability, T/C: stronger effect = lower value
Summary of the method: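 Combination activity was assessed by viability in multicellular tumor spheroids carrying HUVEC and MSC components. Agents were tested with PI3K inhibitors from a Cmax-based top dose (or 10 microM) downward in half-log increments.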
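Note: spheroids exposed to compounds for seven days before viability read.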
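Throughout, for viability, T/C: luminescence used as a proxy for viable cell amount; percent viability relative to DMSO vehicle control as 100%.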

Molecule `CC(C)n1nc(-c2ccc3oc(N)nc3c2)c2c(N)ncnc21` + COc1c(OCCCN2CCOCC2)ccc2c3n(c(=NC(=O)c4cnc(N)nc4)nc12)CCN3 has an IC50 (curve of first compound, second compound 0.00316 µM) of 54.7 nM, an IC50 (curve of first compound, second compound 0.01 µM) of 49.6 nM and an IC50 (curve of first compound, second compound 0.0316 µM) of 31.6 nM. It also gave an IC50 (curve of first compound, second compound 0.1 µM) of 7.59 nM, an IC50 (curve of first compound, second compound 0.316 µM) of less than 0.316 nM and an IC50 (curve of first compound, second compound 1 µM) of less than 0.316 nM. It also gave a viability, T/C (second compound 0.00316 µM, first compound 0.000316 µM) of 92%, a viability, T/C (second compound 0.00316 µM, first compound 0.001 µM) of 81.8% and a viability, T/C (second compound 0.00316 µM, first compound 0.00316 µM) of 83.2%. For the same molecule, the viability, T/C (second compound 0.00316 µM, first compound 0.01 µM) was 81.4%, the viability, T/C (second compound 0.00316 µM, first compound 0.0316 µM) was 63.5% and the viability, T/C (second compound 0.00316 µM, first compound 0.1 µM) was 34.5%. The viability, T/C (second compound 0.01 µM, first compound 0.000316 µM) was 92.1%, the viability, T/C (second compound 0.01 µM, first compound 0.001 µM) was 79.2% and the viability, T/C (second compound 0.01 µM, first compound 0.00316 µM) was 91.3%. For the same molecule, the viability, T/C (second compound 0.01 µM, first compound 0.01 µM) was 82.8%, the viability, T/C (second compound 0.01 µM, first compound 0.0316 µM) was 65.7% and the viability, T/C (second compound 0.01 µM, first compound 0.1 µM) was 25.6%. For the same molecule, the viability, T/C (second compound 0.0316 µM, first compound 0.000316 µM) was 69%, the viability, T/C (second compound 0.0316 µM, first compound 0.001 µM) was 73.7% and the viability, T/C (second compound 0.0316 µM, first compound 0.00316 µM) was 77.9%. The viability, T/C (second compound 0.0316 µM, first compound 0.01 µM) was 68.3%, the viability, T/C (second compound 0.0316 µM, first compound 0.0316 µM) was 50.2% and the viability, T/C (second compound 0.0316 µM, first compound 0.1 µM) was 25.1%. It also gave a viability, T/C (second compound 0.1 µM, first compound 0.000316 µM) of 59.1%, a viability, T/C (second compound 0.1 µM, first compound 0.001 µM) of 56.6% and a viability, T/C (second compound 0.1 µM, first compound 0.00316 µM) of 54.1%. It also gave a viability, T/C (second compound 0.1 µM, first compound 0.01 µM) of 48.3%, a viability, T/C (second compound 0.1 µM, first compound 0.0316 µM) of 37.8% and a viability, T/C (second compound 0.1 µM, first compound 0.1 µM) of 16.1%. It also gave a viability, T/C (second compound 0.316 µM, first compound 0.000316 µM) of 34.8%, a viability, T/C (second compound 0.316 µM, first compound 0.001 µM) of 32.9% and a viability, T/C (second compound 0.316 µM, first compound 0.00316 µM) of 29.9%. The viability, T/C (second compound 0.316 µM, first compound 0.01 µM) was 35%, the viability, T/C (second compound 0.316 µM, first compound 0.0316 µM) was 24.9% and the viability, T/C (second compound 0.316 µM, first compound 0.1 µM) was 10.9%. For the same molecule, the viability, T/C (second compound 1 µM, first compound 0.000316 µM) was 20.9%, the viability, T/C (second compound 1 µM, first compound 0.001 µM) was 16.9% and the viability, T/C (second compound 1 µM, first compound 0.00316 µM) was 16.4%. It also gave a viability, T/C (second compound 1 µM, first compound 0.01 µM) of 16.6%, a viability, T/C (second compound 1 µM, first compound 0.0316 µM) of 14.4% and a viability, T/C (second compound 1 µM, first compound 0.1 µM) of 10.3%.
For `Cn1cnc2c(F)c(Nc3ccc(Br)cc3Cl)c(C(=O)NOCCO)cc21`, the viability, T/C (compound 0.00949 µM) was 89.3% [middle of 4 runs], the viability, T/C (compound 0.03 µM) was 74.7% [middle of 4 runs] and the viability, T/C (compound 0.0949 µM) was 64% [middle of 4 runs]. The viability, T/C (compound 0.3 µM) was 44.4% [middle of 4 runs], the viability, T/C (compound 0.949 µM) was 35.1% [middle of 4 runs] and the viability, T/C (compound 3 µM) was 24.5% [middle of 4 runs]. For the same molecule, the IC50 (curve of compound) was 229 nM [middle of 4 runs].
